Test results published in BigSolDB 2.1.

O=[N+]([O-])c1cccc2ccccc12
solubility (mole fraction)
Settings | 273.15 K | 278.15 K | 283.15 K | 288.15 K | 293.15 K | 298.15 K | 303.15 K | 308.15 K
in acetone | 0.145 | 0.181 | 0.232 | 0.277 | 0.344 | 0.426 | 0.508 | 0.603
in acetonitrile | 0.0535 | 0.0739 | 0.104 | 0.149 | 0.225 | 0.322 | 0.433 | 0.591
in cyclohexane | – | 0.00743 | 0.0104 | 0.0134 | 0.0177 | 0.0261 | 0.0382 | 0.0532
in dichloromethane | 0.241 | 0.283 | 0.328 | 0.384 | 0.434 | 0.5 | 0.554 | 0.637
in ethanol | 0.00915 | 0.0111 | 0.0138 | 0.0173 | 0.0218 | 0.0281 | 0.0366 | 0.0467
in ethyl acetate | 0.143 | 0.172 | 0.213 | 0.254 | 0.31 | 0.382 | 0.472 | 0.566
in isobutanol | 0.00604 | 0.00768 | 0.00962 | 0.0123 | 0.0163 | 0.0219 | 0.0306 | 0.0424
in isopropanol | 0.00588 | 0.00782 | 0.00957 | 0.0123 | 0.0163 | 0.022 | 0.0301 | 0.0423
in methanol | 0.00637 | 0.00811 | 0.00991 | 0.0124 | 0.0155 | 0.0204 | 0.027 | 0.0353
in methyl acetate | 0.135 | 0.172 | 0.21 | 0.26 | 0.32 | 0.406 | 0.487 | 0.59
in n-butanol | 0.0111 | 0.0138 | 0.0169 | 0.0214 | 0.0274 | 0.0359 | 0.0493 | 0.0679
in n-propanol | 0.0094 | 0.0118 | 0.0143 | 0.0176 | 0.0228 | 0.03 | 0.0409 | 0.058
